For eleven molecules, EC50, IC50 and MIC results are on record in patent publication US20240270762A1, “PENICILLIN-BINDING PROTEIN INHIBITORS” (priority 2021, published 2024).

For experiment [1], the target named is T1, PBP3 from Escherichia coli (K-12) (Escherichia coli, UniProt P0AD68).
T1 construct: made in house
The experiment is described as follows: Bocillin-FL fluorescence polarization competition binding, E. coli PBP3. The procedure, abridged: (§1)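 Purified PBP was preincubated with inhibitor (E. coli PBP3 1.5 μM, 30 min; P. aeruginosa PBP3 0.75 μM, A. baumannii PBP3 0.2 μM and PBP1a 1 μM, 15 min), then Bocillin-FL (0.1 μM; 0.05 μM for PBP1a) added and FP read up to 60 min. EC50 = 50% loss of bound probe.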
On the technique in general: Polarisation of emitted light reports the rotation of a fluorescent probe.

In experiment [2] the target is T2, PBP3 from Pseudomonas aeruginosa (PAO1) (Pseudomonas aeruginosa, UniProt G3XD46).
T2 construct: made in house
T2 sequence (G3XD46 whole entry): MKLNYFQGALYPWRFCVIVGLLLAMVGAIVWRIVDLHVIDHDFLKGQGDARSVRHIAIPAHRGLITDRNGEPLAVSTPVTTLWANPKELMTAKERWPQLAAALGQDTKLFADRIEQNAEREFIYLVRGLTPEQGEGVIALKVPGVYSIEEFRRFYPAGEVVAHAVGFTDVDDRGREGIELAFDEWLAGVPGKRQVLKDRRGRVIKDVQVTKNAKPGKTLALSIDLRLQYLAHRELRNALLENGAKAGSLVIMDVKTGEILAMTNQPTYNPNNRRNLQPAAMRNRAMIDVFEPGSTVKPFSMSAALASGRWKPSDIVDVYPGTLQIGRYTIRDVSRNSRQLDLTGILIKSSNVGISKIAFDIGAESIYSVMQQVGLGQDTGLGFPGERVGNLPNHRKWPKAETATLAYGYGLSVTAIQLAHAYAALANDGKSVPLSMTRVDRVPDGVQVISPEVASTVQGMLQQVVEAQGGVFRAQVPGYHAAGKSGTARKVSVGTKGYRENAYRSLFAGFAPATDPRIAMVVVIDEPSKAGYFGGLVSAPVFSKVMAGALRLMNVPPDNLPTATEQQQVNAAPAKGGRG
The experiment is described as follows: Bocillin-FL fluorescence polarization competition binding, P. aeruginosa PBP3. To be noted: Binding affinity to P. aeruginosa PBP3; fluorescence polarization competition binding assay using Bocillin-FL; read-out: P. aeruginosa PBP3 Potency. The gist of the method: as §1

For experiment [3], the target named is T3, PBP3 from Acinetobacter baumannii (ATCC 19606) (Acinetobacter baumannii, UniProt A0ABX6CK25).
T3 sequence (A0ABX6CK25 64-610): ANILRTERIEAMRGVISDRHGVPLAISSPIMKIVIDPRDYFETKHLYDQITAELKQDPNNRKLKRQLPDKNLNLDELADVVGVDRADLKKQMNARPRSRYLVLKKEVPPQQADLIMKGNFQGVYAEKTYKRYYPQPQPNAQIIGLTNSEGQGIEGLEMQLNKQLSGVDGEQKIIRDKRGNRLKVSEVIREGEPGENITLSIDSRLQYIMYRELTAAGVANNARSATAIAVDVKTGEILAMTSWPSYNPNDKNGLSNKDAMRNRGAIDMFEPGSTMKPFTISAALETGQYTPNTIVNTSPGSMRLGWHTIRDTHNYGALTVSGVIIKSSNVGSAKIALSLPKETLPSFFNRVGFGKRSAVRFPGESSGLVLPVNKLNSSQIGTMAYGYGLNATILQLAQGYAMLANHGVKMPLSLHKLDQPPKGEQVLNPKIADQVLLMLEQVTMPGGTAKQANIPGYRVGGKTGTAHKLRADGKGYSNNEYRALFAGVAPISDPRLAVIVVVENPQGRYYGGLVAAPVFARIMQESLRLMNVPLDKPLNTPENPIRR
The experiment is described as follows: Bocillin-FL fluorescence polarization competition binding, A. baumannii PBP3. To be noted: fluorescence polarization competition binding assay using Bocillin-FL; read-out: A. baumannii PBP3 Potency. The gist of the method:
as §1

The test system of another experiment is P. aeruginosa ATCC 35151. The experiment is described as follows: microbe, parasite or virus in culture. It is filed as cell-based. To be noted: Pseudomonas aeruginosa, ATCC35151, read-out: Minimum inhibitory concentration, P. aeruginosa ATCC 35151.
A further experiment concerns P. aeruginosa CDC-0090. The experiment is described as follows: microbe, parasite or virus in culture. It is filed as cell-based. To be noted: Pseudomonas aeruginosa, CDC0090, read-out: Minimum inhibitory concentration, P. aeruginosa CDC-0090.
The test system of another experiment is P. aeruginosa CDC-0095. The experiment is described as follows: microbe, parasite or virus in culture. To be noted: Pseudomonas aeruginosa, CDC0095, read-out: Minimum inhibitory concentration, P. aeruginosa CDC-0095. Format: cell-based.
In another experiment the test system is A. baumannii CDC-0033. The experiment is described as follows: microbe, parasite or virus in culture. Format: cell-based. To be noted: Acinetobacter baumannii, CDC0033, read-out: MIC, A. baumannii CDC-0033.
In experiment [4] the test system is B. thailandensis ATCC 700388. The experiment is described as follows: microbe, parasite or virus in culture. It is filed as cell-based. To be noted: Burkholderia thailandensis, ATCC700388, read-out: Minimum inhibitory concentration (MIC), B. thailandensis ATCC 700388.

≈ marks a conversion by molar mass, not a printed value.

T1 sequence (P0AD68 1-577): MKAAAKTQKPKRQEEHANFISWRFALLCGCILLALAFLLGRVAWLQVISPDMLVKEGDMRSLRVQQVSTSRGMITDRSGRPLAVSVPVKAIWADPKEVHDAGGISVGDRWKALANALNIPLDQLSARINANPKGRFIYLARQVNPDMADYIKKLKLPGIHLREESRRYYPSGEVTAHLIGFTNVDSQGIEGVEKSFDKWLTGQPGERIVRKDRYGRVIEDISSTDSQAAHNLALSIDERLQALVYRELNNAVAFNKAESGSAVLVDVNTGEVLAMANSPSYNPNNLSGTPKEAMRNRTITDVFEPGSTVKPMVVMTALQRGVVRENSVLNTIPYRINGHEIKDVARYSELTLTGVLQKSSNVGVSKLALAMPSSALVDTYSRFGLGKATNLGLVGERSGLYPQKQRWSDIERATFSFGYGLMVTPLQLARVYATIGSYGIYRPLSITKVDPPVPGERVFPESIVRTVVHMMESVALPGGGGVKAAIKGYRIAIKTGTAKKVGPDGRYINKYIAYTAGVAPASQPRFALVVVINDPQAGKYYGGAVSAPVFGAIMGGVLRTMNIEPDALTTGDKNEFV

For `O=C(NCCCN1CCN(C(=O)NC(C(=O)N[C@H]2Cc3ccc(F)c(C(=O)O)c3OB2O)c2cc(F)c(O)c(O)c2Cl)C(=O)C1=O)c1cc(O)ccc1Cl` (stereo partly drawn) [Example 408, (3R)-3-(2-(2-chloro-5-fluoro-3,4-dihydroxyphenyl)-2-(4-(3-(2-chloro-5-hydroxybenzamido)propyl)-2,3-dioxopiperazine-1-carboxamido)acetamido)-7-fluoro-2-hydroxy-3,4-dihydro-2H-benzo[e][1,2]oxaborinine-8-carboxylic acid], in experiment [1], the EC50 (in general, the concentration at which the effect is half-maximal) was less than 10 µM. The IC50 in experiment [2] and in experiment [3] was less than 10 µM throughout. Moreover, the MIC in the experiment with P. aeruginosa ATCC 35151 was less than 1 µg/mL; in the experiment with P. aeruginosa CDC-0090, less than 1 µg/mL; in the experiment on P. aeruginosa CDC-0095, less than 1 µg/mL; with A. baumannii CDC-0033, 2 to 4 µg/mL (≈ 2.52 to 5.04 µM); in experiment [4], 2 to 4 µg/mL (≈ 2.52 to 5.04 µM).

In the case of `O=C(NCCCN1CCN(C(=O)N[C@@H](C(=O)N[C@H]2Cc3ccc(F)c(C(=O)O)c3OB2O)c2cc(F)c(O)c(O)c2Cl)C(=O)C1=O)c1c(F)cc(O)cc1F` (racemic) [Example 420], in experiment [1], the EC50 is less than 10 µM. For the same molecule, the IC50 in experiment [2] and in experiment [3] was less than 10 µM each time. The MIC in the experiment with P. aeruginosa ATCC 35151 is less than 1 µg/mL; in the experiment with P. aeruginosa CDC-0090 it was less than 1 µg/mL; with P. aeruginosa CDC-0095, 2 to 4 µg/mL (≈ 2.51 to 5.03 µM); in the experiment on A. baumannii CDC-0033, 2 to 4 µg/mL (≈ 2.51 to 5.03 µM); in experiment [4], 2 to 4 µg/mL (≈ 2.51 to 5.03 µM).

In experiment [1], `O=C(O)c1c(F)ccc2c1OB(O)[C@@H](NC(=O)C(NC(=O)N1CCN(C3CCN(C(=O)c4cc(O)cc(O)c4)CC3)C(=O)C1=O)c1cc(F)c(O)c(O)c1Cl)C2` (stereo partly drawn) [Example 309, (3R)-3-(2-(2-chloro-5-fluoro-3,4-dihydroxyphenyl)-2-(4-(1-(3,5-dihydroxybenzoyl)piperidin-4-yl)-2,3-dioxopiperazine-1-carboxamido)acetamido)-7-fluoro-2-hydroxy-3,4-dihydro-2H-benzo[e][1,2]oxaborinine-8-carboxylic acid] gave an EC50 of less than 10 µM. The IC50 in experiment [2] and in experiment [3] was less than 10 µM each time. The MIC is less than 1 µg/mL with P. aeruginosa ATCC 35151; 2 to 4 µg/mL (≈ 2.49 to 4.99 µM) in the experiment on P. aeruginosa CDC-0090; 2 to 4 µg/mL (≈ 2.49 to 4.99 µM) in the experiment on P. aeruginosa CDC-0095; 2 to 4 µg/mL (≈ 2.49 to 4.99 µM) in the experiment with A. baumannii CDC-0033; less than 1 µg/mL in experiment [4].

`O=C(NCCCN1CCN(C(=O)NC(C(=O)N[C@H]2Cc3ccc(F)c(C(=O)O)c3OB2O)c2cc(F)c(O)c(O)c2Cl)C(=O)C1=O)c1c(F)ccc(O)c1Cl` (stereo partly drawn) [Example 414, (3R)-3-(2-(2-chloro-5-fluoro-3,4-dihydroxyphenyl)-2-(4-(3-(2-chloro-6-fluoro-3-hydroxybenzamido)propyl)-2,3-dioxopiperazine-1-carboxamido)acetamido)-7-fluoro-2-hydroxy-3,4-dihydro-2H-benzo[e][1,2]oxaborinine-8-carboxylic acid] registered an EC50 in experiment [1] of less than 10 µM. Besides, the IC50 in experiment [2] and in experiment [3] was less than 10 µM each time. Besides, the MIC with P. aeruginosa ATCC 35151 is less than 1 µg/mL; with P. aeruginosa CDC-0090, less than 1 µg/mL; in the experiment on P. aeruginosa CDC-0095, less than 1 µg/mL; with A. baumannii CDC-0033 it was 2 to 4 µg/mL (≈ 2.46 to 4.92 µM); in experiment [4], 2 to 4 µg/mL (≈ 2.46 to 4.92 µM).

For the molecule `O=C(O)c1c(F)ccc2c1OB(O)[C@@H](NC(=O)C(NC(=O)N1CCN(C3CCN(C(=O)c4ccc(O)cc4O)CC3)C(=O)C1=O)c1cc(F)c(O)c(O)c1Cl)C2` (stereo partly drawn) [Example 476, (3R)-3-(2-(2-chloro-5-fluoro-3,4-dihydroxyphenyl)-2-(4-(1-(2,4-dihydroxybenzoyl)piperidin-4-yl)-2,3-dioxopiperazine-1-carboxamido)acetamido)-7-fluoro-2-hydroxy-3,4-dihydro-2H-benzo[e][1,2]oxaborinine-8-carboxylic acid], the IC50 in experiment [2] and in experiment [3] was less than 10 µM in each case. For the same molecule, the MIC (in the experiment with P. aeruginosa ATCC 35151; in the experiment on P. aeruginosa CDC-0090; in the experiment with P. aeruginosa CDC-0095; in the experiment with A. baumannii CDC-0033; in experiment [4]) was less than 1 µg/mL throughout.

Turning to `O=C(O)c1c(F)ccc2c1OB(O)[C@@H](NC(=O)[C@H](NC(=O)N1CCN(C3CCN(C(=O)Nc4ccc(O)cc4)CC3)C1=O)c1cc(F)c(O)c(O)c1Cl)C2` (single isomer, unassigned) [Example 468], the IC50 in experiment [2] and in experiment [3] was less than 10 µM in each case. Besides, the MIC (with P. aeruginosa ATCC 35151; in the experiment on P. aeruginosa CDC-0090; in the experiment on P. aeruginosa CDC-0095; with A. baumannii CDC-0033; in experiment [4]) was less than 1 µg/mL in each case.

Turning to `O=C(O)c1c(F)ccc2c1OB(O)[C@@H](NC(=O)C(NC(=O)N1CCN(CC3CCN(C(=O)c4cccc(O)c4)CC3)C(=O)C1=O)c1cc(F)c(O)c(O)c1Cl)C2` (stereo partly drawn) [Example 475, (3R)-3-(2-(2-chloro-5-fluoro-3,4-dihydroxyphenyl)-2-(4-((1-(3-hydroxybenzoyl)piperidin-4-yl)methyl)-2,3-dioxopiperazine-1-carboxamido)acetamido)-7-fluoro-2-hydroxy-3,4-dihydro-2H-benzo[e][1,2]oxaborinine-8-carboxylic acid], the IC50 in experiment [2] and in experiment [3] was less than 10 µM throughout. In addition, the MIC in the experiment on P. aeruginosa ATCC 35151 was less than 1 µg/mL; in the experiment with P. aeruginosa CDC-0090 it was less than 1 µg/mL; with P. aeruginosa CDC-0095, less than 1 µg/mL; in the experiment with A. baumannii CDC-0033, 2 to 4 µg/mL (≈ 2.5 to 5 µM); in experiment [4], less than 1 µg/mL.

On to `O=C(O)c1c(F)ccc2c1OB(O)[C@@H](NC(=O)C(NC(=O)N1CCN(CC3CCN(C(=O)Nc4cccc(O)c4)CC3)C(=O)C1=O)c1cc(F)c(O)c(O)c1Cl)C2` (stereo partly drawn) [Example 477, (3R)-3-(2-(2-chloro-5-fluoro-3,4-dihydroxyphenyl)-2-(4-((1-((3-hydroxyphenyl)carbamoyl)piperidin-4-yl)methyl)-2,3-dioxopiperazine-1-carboxamido)acetamido)-7-fluoro-2-hydroxy-3,4-dihydro-2H-benzo[e][1,2]oxaborinine-8-carboxylic acid], for which the IC50 in experiment [2] and in experiment [3] was less than 10 µM in each case. Further, the MIC in the experiment on P. aeruginosa ATCC 35151 was less than 1 µg/mL; with P. aeruginosa CDC-0090, less than 1 µg/mL; with P. aeruginosa CDC-0095, less than 1 µg/mL; in the experiment on A. baumannii CDC-0033, 2 to 4 µg/mL (≈ 2.45 to 4.91 µM); in experiment [4], less than 1 µg/mL.

With `O=C(O)c1c(F)ccc2c1OB(O)[C@@H](NC(=O)C(NC(=O)N1CCN(C3CCN(C(=O)Nc4cccc(O)c4F)CC3)C(=O)C1=O)c1cc(F)c(O)c(O)c1Cl)C2` (stereo partly drawn) [Example 478, (3R)-3-(2-(2-chloro-5-fluoro-3,4-dihydroxyphenyl)-2-(4-(1-((2-fluoro-3-hydroxyphenyl)carbamoyl)piperidin-4-yl)-2,3-dioxopiperazine-1-carboxamido)acetamido)-7-fluoro-2-hydroxy-3,4-dihydro-2H-benzo[e][1,2]oxaborinine-8-carboxylic acid], the IC50 in experiment [2] and in experiment [3] was less than 10 µM in each case. For the same molecule, the MIC was less than 1 µg/mL with P. aeruginosa ATCC 35151; 2 to 4 µg/mL (≈ 2.44 to 4.88 µM) in the experiment on P. aeruginosa CDC-0090; 2 to 4 µg/mL (≈ 2.44 to 4.88 µM) in the experiment on P. aeruginosa CDC-0095; 8 to 16 µg/mL (≈ 9.77 to 19.5 µM) in the experiment on A. baumannii CDC-0033; 2 to 4 µg/mL (≈ 2.44 to 4.88 µM) in experiment [4].

As for `O=C(O)c1c(F)ccc2c1OB(O)[C@@H](NC(=O)C(NC(=O)N1CCN(C3CCN(C(=O)Cc4cccc(O)c4)CC3)C(=O)C1=O)c1cc(F)c(O)c(O)c1Cl)C2` (stereo partly drawn) [Example 474, (3R)-3-(2-(2-chloro-5-fluoro-3,4-dihydroxyphenyl)-2-(4-(1-(2-(3-hydroxyphenyl)acetyl)piperidin-4-yl)-2,3-dioxopiperazine-1-carboxamido)acetamido)-7-fluoro-2-hydroxy-3,4-dihydro-2H-benzo[e][1,2]oxaborinine-8-carboxylic acid], the IC50 in experiment [2] and in experiment [3] was less than 10 µM each time. Besides, the MIC in the experiment with P. aeruginosa ATCC 35151 is less than 1 µg/mL; in the experiment on P. aeruginosa CDC-0090, less than 1 µg/mL; in the experiment on P. aeruginosa CDC-0095, 2 to 4 µg/mL (≈ 2.5 to 5 µM); in the experiment on A. baumannii CDC-0033, less than 1 µg/mL; in experiment [4], 2 to 4 µg/mL (≈ 2.5 to 5 µM).

Take `O=C(O)c1c(F)ccc2c1OB(O)[C@@H](NC(=O)[C@@H](NC(=O)N1CCN(C3CCN(C(=O)Nc4ccc(O)cc4)CC3)C1=O)c1cc(F)c(O)c(O)c1Cl)C2` (single isomer, unassigned) [Example 467]: the IC50 in experiment [2] and in experiment [3] was less than 10 µM throughout. Besides, the MIC (in the experiment on P. aeruginosa ATCC 35151; in the experiment on P. aeruginosa CDC-0090; in the experiment with P. aeruginosa CDC-0095; in the experiment on A. baumannii CDC-0033; in experiment [4]) was less than 1 µg/mL throughout.
